Data on 15 compounds can be found in patent US12018021B2 (UCB Biopharma SRL, priority 2018, dated 2024).

Each structure is given as a SMILES string.

For orientation: IC50 means the concentration that inhibits the measured activity by half.

For this assay, the target named is IgE-Tb / sFcεRIα-Y131A-AF488 (Homo sapiens, UniProt P01854, N146Q/N252Q). The experiment in a line: IgE-Tb / sFcεRIα-Y131A-AF488 FRET assay (protocol for examples 234 to 501). It counts as binding. Particulars: examples 234 to 501: compound with IgE-Tb 30 minutes before sFcεRIα-Y131A-AF488, incubated 18 hours at room temperature; read-out: Y131A FRET IC50 range. The essentials: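 Read-out is the 520/490 nm emission ratio (337 nm excitation) after 18 h at room temperature, background subtracted, fitted four-parameter for IC50. Final reagents: 5 nM IgE-Tb, preincubated 30 min with compound (top typically 10 μM, 2% DMSO, 3-fold 10-point), plus 25 nM sFcεRIα-Y131A-AF488.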
Sequence of IgE-Tb / sFcεRIα-Y131A-AF488 (P01854 whole entry N146Q/N252Q): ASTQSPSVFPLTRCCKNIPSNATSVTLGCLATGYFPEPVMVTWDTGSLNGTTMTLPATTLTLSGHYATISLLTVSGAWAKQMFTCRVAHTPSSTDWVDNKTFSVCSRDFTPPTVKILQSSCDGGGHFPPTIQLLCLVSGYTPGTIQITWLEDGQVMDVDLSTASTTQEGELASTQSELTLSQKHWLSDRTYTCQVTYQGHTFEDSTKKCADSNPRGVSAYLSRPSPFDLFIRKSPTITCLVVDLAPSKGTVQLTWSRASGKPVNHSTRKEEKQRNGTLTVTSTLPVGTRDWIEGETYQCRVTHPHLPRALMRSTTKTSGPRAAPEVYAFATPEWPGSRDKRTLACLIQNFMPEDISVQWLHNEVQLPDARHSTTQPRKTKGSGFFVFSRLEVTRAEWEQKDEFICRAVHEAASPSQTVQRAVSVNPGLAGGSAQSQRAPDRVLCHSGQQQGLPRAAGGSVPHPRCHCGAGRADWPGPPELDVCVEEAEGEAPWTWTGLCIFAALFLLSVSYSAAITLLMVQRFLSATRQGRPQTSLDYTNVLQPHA
For the compound `C[C@H]1C[C@@H]1C(=O)Nc1sc2c(c1C(=O)N[C@H]1C[C@H](F)C1)C[C@@H](n1cnnc1Nc1cc(C(F)F)nn1C)CC2` [Example 438, (5S)-5-[3-[[5-(difluoromethyl)-2-methylpyrazol-3-yl]amino]-1,2,4-triazol-4-yl]-N-(trans-3-fluorocyclobutyl)-2-[[(1S,2S)-2-methylcyclopropanecarbonyl]amino]-4,5,6,7-tetrahydro-1-benzothiophene-3-carboxamide], the IC50 was below 1000 nM.

Turning to `C[C@H]1C[C@@H]1C(=O)Nc1sc2c(c1C(=O)NC1CC(F)(F)C1)C[C@@H](n1cnnc1Nc1cc(C(F)F)nn1C)CC2` [Example 439, (5S)—N-(3,3-difluorocyclobutyl)-5-[3-[[5-(difluoromethyl)-2-methylpyrazol-3-yl]amino]-1,2,4-triazol-4-yl]-2-[[(1S,2S)-2-methylcyclopropanecarbonyl]amino]-4,5,6,7-tetrahydro-1-benzothiophene-3-carboxamide], the IC50 is below 1000 nM.

As to `C[C@H]1C[C@@H]1C(=O)Nc1sc2c(c1C(=O)NCC1CC(F)(F)C1)C[C@@H](n1cnnc1Nc1cc(C(F)F)nn1C)CC2` [Example 440, (5S)—N-[(3,3-difluorocyclobutyl)methyl]-5-[3-[[5-(difluoromethyl)-2-methylpyrazol-3-yl]amino]-1,2,4-triazol-4-yl]-2-[[(1S,2S)-2-methylcyclopropanecarbonyl]amino]-4,5,6,7-tetrahydro-1-benzothiophene-3-carboxamide], the IC50 was below 1000 nM.

As to `C[C@H]1C[C@@H]1C(=O)Nc1sc2c(c1C(=O)NCC1CC1(F)F)C[C@@H](n1cnnc1Nc1cc(C(F)F)nn1C)CC2` (stereo partly drawn) [Example 441, (5S)—N-[(2,2-difluorocyclopropyl)methyl]-5-[3-[[5-(difluoromethyl)-2-methylpyrazol-3-yl]amino]-1,2,4-triazol-4-yl]-2-[[(1S,2S)-2-methylcyclopropanecarbonyl]amino]-4,5,6,7-tetrahydro-1-benzothiophene-3-carboxamide], the 50% inhibitory concentration (IC50) was below 1000 nM.

As for `C[C@H]1C[C@@H]1C(=O)Nc1sc2c(c1C(=O)NC[C@H]1C[C@@H](F)C1)C[C@@H](n1cnnc1Nc1cc(C(F)F)nn1C)CC2` [Example 442, (5S)-5-[3-[[5-(difluoromethyl)-2-methylpyrazol-3-yl]amino]-1,2,4-triazol-4-yl]-N-[cis-(3-fluorocyclobutyl)methyl]-2-[[(1S,2S)-2-methylcyclopropanecarbonyl]amino]-4,5,6,7-tetrahydro-1-benzothiophene-3-carboxamide], the concentration for half-maximal inhibition (IC50) is below 1000 nM.

Regarding `C[C@H]1C[C@@H]1C(=O)Nc1sc2c(c1C(=O)NC[C@H]1C[C@H]1F)C[C@@H](n1cnnc1Nc1cc(C(F)F)nn1C)CC2` [Example 443, (5S)-5-[3-[[5-(difluoromethyl)-2-methylpyrazol-3-yl]amino]-1,2,4-triazol-4-yl]-N-[[(1R,2R)-2-fluorocyclopropyl]methyl]-2-[[(1S,2S)-2-methylcyclopropanecarbonyl]amino]-4,5,6,7-tetrahydro-1-benzothiophene-3-carboxamide], the IC50 is below 1000 nM.

Consider `Cn1nc(OC(F)F)cc1Nc1nncn1[C@H]1CCc2sc(NC(=O)C3CC3)c(C(=O)NCC3CC34CC4)c2C1` (stereo partly drawn) [Example 444, (5S)-2-(cyclopropanecarbonylamino)-5-[3-[[5-(difluoromethoxy)-2-methylpyrazol-3-yl]amino]-1,2,4-triazol-4-yl]-N-(spiro[2.2]pentan-2-ylmethyl)-4,5,6,7-tetrahydro-1-benzothiophene-3-carboxamide], for which the IC50 was below 1000 nM.

Consider `Cn1nc(OC(F)F)cc1Nc1nncn1[C@H]1CCc2sc(NC(=O)C3CC3)c(C(=O)NCC3CCC3)c2C1` [Example 445, (5S)—N-(cyclobutylmethyl)-2-(cyclopropanecarbonylamino)-5-[3-[[5-(difluoromethoxy)-2-methylpyrazol-3-yl]amino]-1,2,4-triazol-4-yl]-4,5,6,7-tetrahydro-1-benzothiophene-3-carboxamide], for which the half-maximal inhibitory concentration (IC50) is below 1000 nM.

With `Cn1nc(OC(F)F)cc1Nc1nncn1[C@H]1CCc2sc(NC(=O)C3CC3)c(C(=O)NCC3CC(F)(F)C3)c2C1` [Example 446, (5S)-2-(cyclopropanecarbonylamino)-N-[(3,3-difluorocyclobutyl)methyl]-5-[3-[[5-(difluoromethoxy)-2-methylpyrazol-3-yl]amino]-1,2,4-triazol-4-yl]-4,5,6,7-tetrahydro-1-benzothiophene-3-carboxamide], the IC50 was below 1000 nM.

Regarding `Cn1nc(OC(F)F)cc1Nc1nncn1[C@H]1CCc2sc(NC(=O)C3CC3)c(C(=O)N[C@H]3C[C@@H](F)C3)c2C1` [Example 447, (5S)-2-(cyclopropanecarbonylamino)-5-[3-[[5-(difluoromethoxy)-2-methylpyrazol-3-yl]amino]-1,2,4-triazol-4-yl]-N-(cis-3-fluorocyclobutyl)-4,5,6,7-tetrahydro-1-benzothiophene-3-carboxamide], the concentration for half-maximal inhibition (IC50) is below 1000 nM.

For the compound `CC1CC(NC(=O)c2c(NC(=O)C3CC3)sc3c2C[C@@H](n2cnnc2Nc2cc(OC(F)F)nn2C)CC3)C1` (stereo partly drawn) [Example 448, (5S)-2-(cyclopropanecarbonylamino)-5-[3-[[5-(difluoromethoxy)-2-methylpyrazol-3-yl]amino]-1,2,4-triazol-4-yl]-N-(3-methylcyclobutyl)-4,5,6,7-tetrahydro-1-benzothiophene-3-carboxamide], the IC50 was below 1000 nM.

As for `Cn1nc(OC(F)F)cc1Nc1nncn1[C@H]1CCc2sc(NC(=O)C3CC3)c(C(=O)N[C@H]3C[C@H](F)C3)c2C1` [Example 449, (5S)-2-(cyclopropanecarbonylamino)-5-[3-[[5-(difluoromethoxy)-2-methylpyrazol-3-yl]amino]-1,2,4-triazol-4-yl]-N-(trans-3-fluorocyclobutyl)-4,5,6,7-tetrahydro-1-benzothiophene-3-carboxamide], the IC50 was below 1000 nM.

On to `Cn1nc(OC(F)F)cc1Nc1nncn1[C@H]1CCc2sc(NC(=O)C3CC3)c(C(=O)NC3CC(F)(F)C3)c2C1` [Example 450, (5S)-2-(cyclopropanecarbonylamino)-N-(3,3-difluorocyclobutyl)-5-[3-[[5-(difluoromethoxy)-2-methylpyrazol-3-yl]amino]-1,2,4-triazol-4-yl]-4,5,6,7-tetrahydro-1-benzothiophene-3-carboxamide], for which the concentration for half-maximal inhibition (IC50) is below 1000 nM.

`Cn1nc(OC(F)F)cc1Nc1nncn1[C@H]1CCc2sc(NC(=O)C3CC3)c(C(=O)NCC3CCC3(F)F)c2C1` (stereo partly drawn) [Example 451, (5S)-2-(cyclopropanecarbonylamino)-N-[(2,2-difluorocyclobutyl)methyl]-5-[3-[[5-(difluoromethoxy)-2-methylpyrazol-3-yl]amino]-1,2,4-triazol-4-yl]-4,5,6,7-tetrahydro-1-benzothiophene-3-carboxamide]: the IC50 is below 1000 nM.

`CC1CC1CNC(=O)c1c(NC(=O)C2CC2)sc2c1C[C@@H](n1cnnc1Nc1cc(OC(F)F)nn1C)CC2` (stereo partly drawn) [Example 453, (5S)-2-(cyclopropanecarbonylamino)-5-[3-[[5-(difluoromethoxy)-2-methylpyrazol-3-yl]amino]-1,2,4-triazol-4-yl]-N-[(2-methylcyclopropyl)methyl]-4,5,6,7-tetrahydro-1-benzothiophene-3-carboxamide]: the IC50 was below 1000 nM.
